# Assays:
# [1] = target: C-kinase (protein kinase C); assay: C-Kinase inhibitory activity test; type: biochemical; settings: enzyme activity inhibited 50%
# HeLaS3 cells = assay: HeLaS3 cell growth inhibition test; type: cell-based; settings: Homo sapiens, HeLa S3; HeLaS3 cells, contact for 72 hours; read-out: cell growth inhibitory activity IC50, HeLaS3
# Description: (§1) Compound (I) was examined for C-kinase inhibitory activity and cell growth inhibitory activity by the following method.
# (§2) MCF 7 cells (4.5×10^4 cells/ml) prepared in RPMI 1640 medium containing 10% fetal calf serum, 10 μg/ml insulin and 10^-8 M estradiol are put into wells of a 96-well microtiter plate in the amount of 0.1 ml per each well. After incubation at 37° C. overnight in CO2 -incubator, 0.05 ml each of a test sample appropriately diluted with the culture medium is added to each well. In the case of contact for 72 hours, the cells are further cultured in CO2 -incubator, and then the culture supernatant is removed and the wells are washed once with PBS(-). Thereafter, 0.1 ml of fresh medium is added to each well, followed by culturing at 37° C. for 72 hours in CO2 -incubator. After the culture supernatant is removed, 0.1 ml of the culture medium containing 0.02% Neutral Red is added to each well, followed by culturing at 37° C. for one hour in CO2 -incubator, whereby the cells are stained. Then, the culture supernatant is removed and the cells are washed once with physiological saline. The pigment is extracted with 0.001N HCl/30% ethanol and absorption is measured at 550 nm with a microplate reader. By comparing the absorption of intact cells with those of the cells treated with a test compound in known concentrations, the concentration of the test compound at which growth of the cells is inhibited 50% is calculated as IC50.
# (3) HeLaS3 cell growth inhibition test:
# HeLaS3 cells (3×10^4 cells/ml) prepared in MEM medium containing 10% fetal calf serum and 2 mM glutamine are put into wells of a 96-well microtiter plate in the amount of 0.1 ml per each well.
# Thereafter, the test is carried out in the same manner as in (1).
# MCF 7 cells = assay: MCF 7 cell growth inhibition test; type: cell-based; settings: Homo sapiens, MCF7; MCF-7 cells, contact for 72 hours; read-out: cell growth inhibitory activity IC50, MCF-7
# Description: as §1
# (1) MCF 7 cell growth inhibition test:
# as §2
# COLO320DM cells = assay: COLO320DM cell growth inhibition test; type: cell-based; settings: Homo sapiens, COLO 320DM; COLO320DM cells, cells counted with a microcell counter; read-out: cell growth inhibitory activity IC50, COLO320DM
# Description: as §2, with “After” for “MCF 7 cells (4.5×10^4 cells/ml) prepared in RPMI 1640 medium containing 10% fetal calf serum, 10 μg/ml insulin and 10^-8 M estradiol are put into wells of a 96-well microtiter plate in the amount of 0.1 ml per each well. After”, “reader.” for “reader. By comparing the absorption of intact cells with those of the cells treated with a test compound in known concentrations, the concentration of the test compound at which growth of the cells is inhibited 50% is calculated as IC50.”
# (4) COLO320DM cell growth inhibition test:
# Thereafter, the test is carried out in the same manner as in (1) except that the cells are counted with a microcell counter.
SMILES,C-Kinase inhibitory activity IC50 [1],IC50 (HeLaS3 cells),IC50 (MCF 7 cells),IC50 (COLO320DM cells)
COC(=O)[C@@]1(O)C[C@H]2O[C@]1(C)n1c3ccccc3c3c4c(c5c6cc(N)ccc6n2c5c31)C(=O)NC4 (relative stereo) [Compound 9],0.175 µg/mL,0.01 µg/mL,0.13 µg/mL,0.05 µg/mL
COC(=O)[C@@]1(O)C[C@H]2O[C@]1(C)n1c3ccc(N)cc3c3c4c(c5c6cc(N)ccc6n2c5c31)C(=O)NC4 (relative stereo) [Compound 10],0.02 µg/mL,0.07 µg/mL,0.95 µg/mL,0.1 µg/mL
COC(=O)[C@@]1(O)C[C@H]2O[C@]1(C)n1c3ccccc3c3c4c(c5c6cccc(N)c6n2c5c31)C(=O)NC4 (relative stereo) [Compound 11],,0.1 µg/mL,0.47 µg/mL,0.16 µg/mL
COC(=O)[C@@]1(O)C[C@H]2O[C@]1(C)n1c3ccccc3c3c4c(c5c6cc(N(C)C)ccc6n2c5c31)C(=O)NC4 (relative stereo) [Compound 12],,0.17 µg/mL,0.36 µg/mL,0.11 µg/mL
COC(=O)[C@@]1(O)C[C@H]2O[C@]1(C)n1c3ccc(O)cc3c3c4c(c5c6cc(O)ccc6n2c5c31)C(=O)NC4 (relative stereo) [Compound 16],0.005 µg/mL,0.44 µg/mL,0.84 µg/mL,
C[C@]12O[C@H](C[C@]1(O)CO)n1c3ccc(O)cc3c3c4c(c5c6ccccc6n2c5c31)CNC4=O (relative stereo) [Compound 21],0.01 µg/mL,0.46 µg/mL,0.76 µg/mL,0.29 µg/mL
C[C@]12O[C@H](C[C@]1(O)CO)n1c3ccc(N)cc3c3c4c(c5c6ccccc6n2c5c31)CNC4=O (relative stereo) [Compound 23],0.038 µg/mL,0.15 µg/mL,0.34 µg/mL,0.22 µg/mL
C[C@]12O[C@H](C[C@]1(O)CO)n1c3ccc(Br)cc3c3c4c(c5c6ccccc6n2c5c31)CNC4=O (relative stereo) [Compound 24],,0.06 µg/mL,0.19 µg/mL,0.06 µg/mL
Cc1ccc2c(c1)c1c3c(c4c5ccccc5n5c4c1n2[C@H]1C[C@](O)(CO)[C@]5(C)O1)CNC3=O (relative stereo) [Compound 26],,0.03 µg/mL,0.26 µg/mL,0.03 µg/mL
C[C@]12O[C@H](C[C@]1(O)COC(=O)CCC(=O)O)n1c3ccccc3c3c4c(c5c6ccccc6n2c5c31)CNC4=O (relative stereo) [Compound 27],0.017 µg/mL,0.53 µg/mL,> 1 µg/mL,> 1 µg/mL
COC(=O)CNC[C@@]1(O)C[C@H]2O[C@]1(C)n1c3ccccc3c3c4c(c5c6ccccc6n2c5c31)C(=O)NC4 (relative stereo) [Compound 31],,0.08 µg/mL,0.8 µg/mL,0.31 µg/mL
C[C@]12O[C@H](C[C@]1(O)CNCC(=O)O)n1c3ccccc3c3c4c(c5c6ccccc6n2c5c31)CNC4=O (relative stereo) [Compound 32],0.01 µg/mL,0.22 µg/mL,0.74 µg/mL,> 1 µg/mL
CN(C)C=NC[C@@]1(O)C[C@H]2O[C@]1(C)n1c3ccccc3c3c4c(c5c6ccccc6n2c5c31)C(=O)NC4 (relative stereo) [Compound 33],,0.08 µg/mL,0.26 µg/mL,1 µg/mL
C[C@]12O[C@H](C[C@]1(O)COC1CCCCO1)n1c3ccccc3c3c4c(c5c6ccccc6n2c5c31)CNC4=O (stereo partly shown) [Compound 28],,0.2 µg/mL,1 µg/mL,0.32 µg/mL
CC12OC(CC1(O)CNC(=O)CN)n1c3ccccc3c3c4c(c5c6ccccc6n2c5c31)CNC4=O (stereo not shown) [Compound 34],,0.03 µg/mL,0.24 µg/mL,0.17 µg/mL
CC12OC(CC1(O)CNC(=O)C1CCCN1)n1c3ccccc3c3c4c(c5c6ccccc6n2c5c31)CNC4=O (stereo not shown) [Compound 35],,0.05 µg/mL,0.27 µg/mL,0.26 µg/mL
CC12OC(CC13CO3)n1c3ccccc3c3c4c(c5c6ccccc6n2c5c31)CNC4=O (stereo not shown) [Compound 36],0.02 µg/mL,0.08 µg/mL,0.52 µg/mL,0.12 µg/mL
CC12OC(CC1(O)CN1CCOCC1)n1c3ccccc3c3c4c(c5c6ccccc6n2c5c31)CNC4=O (stereo not shown) [Compound 38],0.10 µg/mL,0.18 µg/mL,,0.3 µg/mL

SMILES,C-Kinase inhibitory activity IC50 [1],IC50 (HeLaS3 cells),IC50 (MCF 7 cells),IC50 (COLO320DM cells)
CC12OC(CC1(O)CN1CCSCC1)n1c3ccccc3c3c4c(c5c6ccccc6n2c5c31)CNC4=O (stereo not shown) [Compound 39],,0.14 µg/mL,> 1 µg/mL,0.38 µg/mL
CC12OC(CC1(O)CN1CCNCC1)n1c3ccccc3c3c4c(c5c6ccccc6n2c5c31)CNC4=O (stereo not shown) [Compound 40],,0.38 µg/mL,> 1 µg/mL,> 1 µg/mL
CC12OC(CC1(O)CN1CCCCC1)n1c3ccccc3c3c4c(c5c6ccccc6n2c5c31)CNC4=O (stereo not shown) [Compound 41],,0.06 µg/mL,> 1 µg/mL,0.07 µg/mL
CC12OC(CC1(O)CNCC(O)CO)n1c3ccccc3c3c4c(c5c6ccccc6n2c5c31)CNC4=O (stereo not shown) [Compound 43],0.02 µg/mL,0.19 µg/mL,0.52 µg/mL,> 1 µg/mL
CC12OC(CC1(O)C=NO)n1c3ccccc3c3c4c(c5c6ccccc6n2c5c31)CNC4=O (stereo not shown) [Compound 50],0.013 µg/mL,0.22 µg/mL,,0.17 µg/mL
C[C@]12O[C@H](C[C@]1(O)C=NNC1=NCCN1)n1c3ccccc3c3c4c(c5c6ccccc6n2c5c31)CNC4=O [Compound 51],0.031 µg/mL,0.23 µg/mL,0.5 µg/mL,1 µg/mL
CC12OC(CC1(O)C=NNC(=N)N)n1c3ccccc3c3c4c(c5c6ccccc6n2c5c31)CNC4=O (stereo not shown) [Compound 52],0.021 µg/mL,0.46 µg/mL,0.4 µg/mL,> 1 µg/mL
CC1=NCC2(CC3OC2(C)n2c4ccccc4c4c5c(c6c7ccccc7n3c6c42)C(=O)NC5)O1 (stereo not shown) [Compound 56],0.006 µg/mL,0.07 µg/mL,0.4 µg/mL,1 µg/mL
CN1CC2(CC3OC2(C)n2c4ccccc4c4c5c(c6c7ccccc7n3c6c42)C(=O)NC5)OC1=O (stereo not shown) [Compound 59],0.046 µg/mL,0.17 µg/mL,1 µg/mL,0.39 µg/mL
CC12OC(CC13CN(CC=NNC(=N)N)C(=O)O3)n1c3ccccc3c3c4c(c5c6ccccc6n2c5c31)CNC4=O (stereo not shown) [Compound 63],0.053 µg/mL,0.2 µg/mL,0.45 µg/mL,0.64 µg/mL
CC12OC(CC1(O)CO)n1c3ccccc3c3c4c(c5c6ccccc6n2c5c31)C(=O)NC4=O (stereo not shown) [Compound 67],0.016 µg/mL,0.95 µg/mL,,0.18 µg/mL
COC(=O)C1(O)CC2OC1(C)n1c3ccccc3c3c4c(c5c6ccccc6n2c5c31)C(=O)N(CCN(C)C)C4=O (stereo not shown) [Compound 69],,0.88 µg/mL,> 1 µg/mL,0.68 µg/mL
CN(C)CCN1C(=O)c2c(c3c4ccccc4n4c3c3c2c2ccccc2n3C2CC(O)(CO)C4(C)O2)C1=O (stereo not shown) [Compound 70],,0.5 µg/mL,0.45 µg/mL,0.41 µg/mL
CC12OC(CC1(O)CN)n1c3ccccc3c3c4c(c5c6ccccc6n2c5c31)C(=O)N(N)C4=O (stereo not shown) [Compound 71],,> 1 µg/mL,1 µg/mL,> 1 µg/mL
CC12OC(CC1(O)CO)n1c3ccccc3c3c4c(c5c6ccccc6n2c5c31)C(=O)N(N)C4=O (stereo not shown) [Compound 72],0.22 µg/mL,0.24 µg/mL,0.2 µg/mL,0.37 µg/mL
CN1CC2(CC3OC2(C)n2c4ccccc4c4c5c(c6c7ccccc7n3c6c42)C(=O)NC5=O)OC1=O (stereo not shown) [Compound 75],,0.27 µg/mL,,0.18 µg/mL
CC12OC(CC1(O)C(=O)NO)n1c3ccccc3c3c4c(c5c6ccccc6n2c5c31)C(=O)NC4=O (stereo not shown) [Compound 76],,0.4 µg/mL,0.62 µg/mL,0.06 µg/mL

# From US4923986A, “Derivatives of physiologically active substance K-252” (Kyowa Hakko Kogyo Co., Ltd., priority 1988, dated 1990)
